{
  "source": "paper PMC8120209",
  "about": "“Longitudinal evaluation of a novel BChE PET tracer as an early in vivo biomarker in the brain of a mouse model for Alzheimer disease” (Theranostics, 2021)",
  "experiment_in_all_cases": "biochemical",
  "parameters_in_all_cases": "Eurofins SafetyScreen44 radioligand displacement, inhibition of control specific binding",
  "settings_in_all_cases": "read-out: % Inhibition of Control Specific Binding, Mean",
  "key": {"β1(h)": {"molecular_target": "T1, β1(h) (Homo sapiens, UniProt P08588)", "T1 construct": "gene ADRB1", "T1 sequence (P08588 whole entry)": "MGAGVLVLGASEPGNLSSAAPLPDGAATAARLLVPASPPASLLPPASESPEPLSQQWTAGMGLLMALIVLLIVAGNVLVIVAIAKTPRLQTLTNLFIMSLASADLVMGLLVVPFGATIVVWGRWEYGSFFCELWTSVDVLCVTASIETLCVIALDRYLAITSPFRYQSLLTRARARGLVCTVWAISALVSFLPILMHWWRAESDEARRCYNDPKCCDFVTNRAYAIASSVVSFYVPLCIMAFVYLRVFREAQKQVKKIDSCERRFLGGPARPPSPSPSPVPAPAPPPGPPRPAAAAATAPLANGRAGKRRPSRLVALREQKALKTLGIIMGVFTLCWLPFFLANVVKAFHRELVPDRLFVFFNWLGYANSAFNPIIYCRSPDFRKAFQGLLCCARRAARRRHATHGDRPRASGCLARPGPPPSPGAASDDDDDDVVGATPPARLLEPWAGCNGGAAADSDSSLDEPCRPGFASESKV"}, "5-HT1B (h)": {"molecular_target": "T2, 5-HT1B (h) (Homo sapiens, UniProt P28222)", "T2 construct": "gene HTR1B", "T2 sequence (P28222 whole entry)": "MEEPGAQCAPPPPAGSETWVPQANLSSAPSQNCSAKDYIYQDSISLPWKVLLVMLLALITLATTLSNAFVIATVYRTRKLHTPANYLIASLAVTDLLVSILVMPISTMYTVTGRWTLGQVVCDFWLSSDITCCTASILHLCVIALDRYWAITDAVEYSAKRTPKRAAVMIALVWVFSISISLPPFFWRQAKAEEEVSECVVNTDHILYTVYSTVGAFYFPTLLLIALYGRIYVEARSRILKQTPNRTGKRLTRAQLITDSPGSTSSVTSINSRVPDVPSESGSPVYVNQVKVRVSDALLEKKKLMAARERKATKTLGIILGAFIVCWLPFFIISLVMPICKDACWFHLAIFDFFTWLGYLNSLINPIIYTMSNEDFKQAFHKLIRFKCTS"}, "kappa (h) (KOP)": {"molecular_target": "T3, kappa (h) (KOP) (Homo sapiens, UniProt P41145)", "T3 construct": "gene OPRK1", "T3 sequence (P41145 whole entry)": "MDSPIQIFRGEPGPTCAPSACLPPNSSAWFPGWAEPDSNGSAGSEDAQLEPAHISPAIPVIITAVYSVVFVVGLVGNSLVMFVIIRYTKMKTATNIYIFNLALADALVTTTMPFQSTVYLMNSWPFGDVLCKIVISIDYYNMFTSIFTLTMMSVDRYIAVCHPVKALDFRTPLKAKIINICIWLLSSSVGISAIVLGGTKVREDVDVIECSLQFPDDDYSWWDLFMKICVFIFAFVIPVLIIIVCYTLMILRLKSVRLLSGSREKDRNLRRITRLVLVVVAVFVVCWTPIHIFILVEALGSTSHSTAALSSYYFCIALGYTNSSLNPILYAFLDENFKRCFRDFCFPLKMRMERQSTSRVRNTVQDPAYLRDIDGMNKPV"}},
  "data": [
    {"compound": "COCCN(CC1CCCN(Cc2ccccc2)C1)S(=O)(=O)c1ccc2ccccc2c1", "note": "(racemic) [compound 4, (±)N-((1-benzylpiperidin-3-yl)methyl)-N-(2-methoxyethyl)naphthalene-2-sulfonamide]", "values": [
      {"measurement": "inhibition at 10 µM", "setting": "β1(h)", "result": 4.5, "unit": "%"},
      {"measurement": "inhibition at 10 µM", "setting": "5-HT1B (h)", "result": 45, "unit": "%"},
      {"measurement": "inhibition at 10 µM", "setting": "kappa (h) (KOP)", "result": 26.1, "unit": "%"}
    ]}
  ]
}
